Reference: US7495021B2, “Benzothiazole- and benzooxazole-4,7-dione, derivatives and their use as cdc25 phosphate inhibitors” (Societe de Conseils de Recherches et d'Applications …, priority 2001, dated 2009)
Counter-ions that a name gives are not always drawn.

Experiments:
[1] = system: DU145 (human prostate cancer cells); assay: Antiproliferative activity, WST1 colorimetric test, DU145; assay type: cell-based; settings: DU-145, 96 hours treatment, up to 10 μM, read-out: Cl50 on the cell proliferation of the lines DU-145
Protocol: (§1) iii) Characterization of the Antiproliferative Activity:
(§2) By way of example, the effect of a treatment on two human cell lines Mia-Paca2 and DU145 by the compounds of the examples described previously will be studied. The cell lines DU145 (human prostate cancer cells) and Mia-PaCa2 (human pancreas cancer cells) were acquired from the American Tissue Culture Collection (Rockville, Md., USA). The cells placed in 80 μl of Dulbecco's Modified Eagle's medium (Gibco-Brl, Cergy-Pontoise, France) completed with 10% foetal calf serum inactivated by heating (Gibco-Brl, Cergy-Pontoise, France), 50,000 units/l of penicillin and 50 mg/l of streptomycin (Gibco-Brl, 10378-057, Cergy-Pontoise, France), and 2 mM of glutamine (Gibco-Brl, Cergy-Pontoise, France) were seeded on a 96-well plate on day 0. The cells were treated on day 1 for 96 hours with increasing concentrations of each of the compounds to be tested up to 10 μM. At the end of this period, quantification of cell proliferation is evaluated by a colorimetric test based on the cleavage of the tetrazolium salt WST1 by the mitochondrial dehydrogenases in viable cells leading to the formation of formazan (Boehringer Mannheim, Meylan, France). These tests are carried out in duplicate with 8 determinations per concentration tested. For each compound to be tested, the values included in the linear part of the sigmoid were retained for a linear regression analysis and used to estimate the inhibitory concentration IC50. The products are solubilized in dimethylsulphoxide (DMSO) at 10^−2 M and used in culture with 0.1% DMSO final.

[2] = system: Mia-PaCa2 (human pancreas cancer cells); assay: Antiproliferative activity, WST1 colorimetric test, Mia-PaCa2; assay type: cell-based; settings: MIA PaCa-2, 96 hours treatment, up to 10 μM, read-out: CI50 on the cell proliferation of the lines Mia-Paca2
Protocol: as §1, §2

Compound | IC50 [1] [µM] | melting point [°C] | IC50 [2] [µM]
Cc1nc2c(s1)C(=O)C=C(NCCN1CCCCC1)C2=O [Example 20, 2-methyl-5-[(2-piperidin-1-ylethyl)amino]-1,3-benzothiazole-4,7-dione] | ≤ 10 | – | –
Cc1nc2c(s1)C(=O)C=C(NCCCN1CCCCC1C)C2=O (stereo not shown) [Example 25, 2-methyl-5-{[3-(2-methylpiperidin-1-yl)propyl]amino}-1,3-benzothiazole-4,7-dione] | ≤ 10 | – | –
Cc1nc2c(s1)C(=O)C=C(NCC13CC4CC(CC(C4)C1)C3)C2=O [Example 7, 5-[(1-adamantylmethyl)amino]-2-methyl-1,3-benzothiazole-4,7-dione] | ≤ 10 | – | –
Cc1nc2c(s1)C(=O)C=C(NCCCNC(=O)OC(C)(C)C)C2=O [Example 31, tert-butyl 3-[(2-methyl-4,7-dioxo-4,7-dihydro-1,3-benzothiazol-5-yl)amino]propylcarbamate] | ≤ 10 | – | –
Cc1nc2c(s1)C(=O)C=C(NCCCN1CCN(C)CC1)C2=O [Example 5, 2-methyl-5-{[3-(4-methyl-1-piperazinyl)propyl]amino}-1,3-benzothiazole-4,7-dione] | ≤ 10 | – | –
Cc1nc2c(s1)C(=O)C=C(NCc1cccs1)C2=O [Example 8, 2-methyl-5-[(2-thienylmethyl)amino]-1,3-benzothiazole-4,7-dione] | ≤ 10 | – | –
Cc1nc2c(s1)C(=O)C=C(NCCCN)C2=O [Example 33, 5-[(3-aminopropyl)amino]-2-methyl-1,3-benzothiazole-4,7-dione] | ≤ 10 | – | ≤ 10
CN(C)CCNC1=CC(=O)c2sc(CN3CCCCC3)nc2C1=O [Example 39, 5-{[2-(dimethylamino)ethyl]amino}-2-(piperidin-1-ylmethyl)-1,3-benzothiazole-4,7-dione] | ≤ 10 | – | –
Cc1nc2c(s1)C(=O)C(Cl)=C(NCCN(C)C)C2=O [Example 34] | ≤ 10 | – | –
CN(C)CCNC1=CC(=O)c2sc(CN3CCN(c4ccccc4)CC3)nc2C1=O [Example 38] | ≤ 10 | – | –
Cc1nc2c(s1)C(=O)C=C(NC1CCc3ccccc31)C2=O (stereo not shown) [Example 28, 5-(2,3-dihydro-1H-inden-1-ylamino)-2-methyl-1,3-benzothiazole-4,7-dione] | ≤ 10 | – | –
Cc1nc2c(s1)C(=O)C=C(NC1CCN(Cc3ccccc3)C1)C2=O (stereo not shown) [Example 22, 5-[(1-benzylpyrrolidin-3-yl)amino]-2-methyl-1,3-benzothiazole-4,7-dione] | ≤ 10 | – | –
CCc1nc2c(o1)C(=O)C=C(Nc1ccccc1)C2=O [Example 15, 5-anilino-2-ethyl-4,7-dihydrobenzo[d][1,3]oxazole-4,7-dione] | ≤ 10 | 200 | ≤ 10
CN(C)CCNC1=CC(=O)c2sc(CN3CCOCC3)nc2C1=O [Example 37, 5-{[2-(dimethylamino)ethyl]amino}-2-(morpholin-4-ylmethyl)-1,3-benzothiazole-4,7-dione] | ≤ 10 | – | –
Cc1nc2c(s1)C(=O)C=C(NCCC1CCCN1C)C2=O (stereo not shown) [Example 24, 2-methyl-5-{[2-(1-methylpyrrolidin-2-yl)ethyl]amino}-1,3-benzothiazole-4,7-dione] | ≤ 10 | – | –
Cc1nc2c(s1)C(=O)C=C(NCCN(C(C)C)C(C)C)C2=O [Example 21, 5-{[2-(diisopropylamino)ethyl]amino}-2-methyl-1,3-benzothiazole-4,7-dione] | ≤ 10 | – | –
Cc1nc2c(s1)C(=O)C=C(NCC(C)(C)CN(C)C)C2=O [Example 4, 5-{[3-(dimethylamino)-2,2-dimethylpropyl]amino}-2-methyl-1,3-benzothiazole-4,7-dione] | ≤ 10 | – | –
CCCCCC(CC)NC1=CC(=O)c2sc(C)nc2C1=O (stereo not shown) [Example 6, 5-[(1-ethylhexyl)amino]-2-methyl-1,3-benzothiazole-4,7-dione] | ≤ 10 | – | –
CCCCSC1=C(NCCN(C)C)C(=O)c2nc(C)sc2C1=O [Example 36, 6-(butylthio)-5-{[2-(dimethylamino)ethyl]amino}-2-methyl-1,3-benzothiazole-4,7-dione] | ≤ 10 | – | –
Cc1nc2c(s1)C(=O)C=C(NCCN(C)C)C2=O [Example 2, 5-{[2-(dimethylamino)ethyl]amino}-2-methyl-1,3-benzothiazole-4,7-dione hydrochloride] | ≤ 10 | – | –
Cc1nc2c(s1)C(=O)C=C(NCc1cccc(Cl)c1)C2=O [Example 9, 5-[(3-chlorobenzyl)amino]-2-methyl-1,3-benzothiazole-4,7-dione] | ≤ 10 | – | –

The next lines start with the values.

IC50 [1] [µM] | melting point [°C] | IC50 [2] [µM] | Compound
≤ 10 | – | – | Cc1nc2c(s1)C(=O)C=C(N1CCN(Cc3ccccc3)CC1)C2=O [Example 14, 5-(4-benzyl-1-piperazinyl)-2-methyl-1,3-benzothiazole-4,7-dione]
≤ 10 | 135 | – | CCc1nc2c(o1)C(=O)C(C)=C(NCCN(C)C)C2=O [Example 55, 5-{[2-(dimethylamino)ethyl]amino}-2-ethyl-6-methyl-1,3-benzoxazole-4,7-dione]
≤ 10 | – | – | Cc1nc2c(s1)C(=O)C=C(NCCCCCCN(C)C)C2=O [Example 3, 5-{[6-(dimethylamino)hexyl]amino}-2-methyl-1,3-benzothiazole-4,7-dione]
≤ 10 | – | – | Cc1nc2c(s1)C(=O)C=C(NCCN1CCCC1)C2=O [Example 19, 2-methyl-5-[(2-pyrrolidin-1-ylethyl)amino]-1,3-benzothiazole-4,7-dione]
≤ 10 | 159 | ≤ 10 | CCc1nc2c(o1)C(=O)C(Cl)=C(Nc1ccccc1)C2=O [Example 16, 5-anilino-6-chloro-2-ethyl-1,3-benzoxazole-4,7-dione]
≤ 10 | – | – | Cc1nc2c(s1)C(=O)C=C(NCCCCN(C)C)C2=O [Example 26, 5-{[4-(dimethylamino)butyl]amino}-2-methyl-1,3-benzothiazole-4,7-dione]
≤ 10 | – | – | Cc1nc2c(s1)C(=O)C=C(NCCN1CCOCC1)C2=O [Example 1, 2-methyl-5-{[2-(4-morpholinyl)ethyl]amino}-1,3-benzothiazole-4,7-dione]
≤ 10 | – | – | Cc1nc2c(s1)C(=O)C=C(NCCCCCN(C)C)C2=O [Example 27, 5-{[5-(dimethylamino)pentyl]amino}-2-methyl-1,3-benzothiazole-4,7-dione]
≤ 10 | – | – | CNCCCNC1=CC(=O)c2sc(C)nc2C1=O [Example 32, 2-methyl-5-{[3-(methylamino)propyl]amino}-1,3-benzothiazole-4,7-dione hydrochloride]
≤ 10 | – | – | COCCNC1=CC(=O)c2sc(C)nc2C1=O [Example 18, 5-[(2-methoxyethyl)amino]-2-methyl-1,3-benzothiazole-4,7-dione]
≤ 10 | – | – | Cc1nc2c(s1)C(=O)C=C(N(CCN(C)C)Cc1ccccc1)C2=O [Example 29, 5-{benzyl[2-(dimethylamino)ethyl]amino}-2-methyl-1,3-benzothiazole-4,7-dione]
≤ 10 | – | – | Cc1nc2c(s1)C(=O)C=C(NCCCN(C)C)C2=O [Example 23, 5-{[3-(dimethylamino)propyl]amino}-2-methyl-1,3-benzothiazole-4,7-dione]
≤ 10 | 232 | ≤ 10 | CCc1nc2c(o1)C(=O)C=C(Nc1ccc(F)cc1)C2=O [Example 17, 2-ethyl-5-[(4-fluorophenyl)amino]-1,3-benzoxazole-4,7-dione]
≤ 10 | – | – | Cc1nc2c(s1)C(=O)C=C(NCCCN(C)C(=O)OC(C)(C)C)C2=O [Example 30, tert-butyl methyl{3-[(2-methyl-4,7-dioxo-4,7-dihydro-1,3-benzothiazole-5-yl)amino]propyl}carbamate]
